This assay deals with CSF-1R (Homo sapiens (Human), UniProt P07333). The assay is described as follows: In vitro CSF-1R kinase activity measured by trFRET. Type of assay: biochemical. The note with it: recombinant human catalytic domain (aa 538-910), 0.1 mM ATP; read-out: CSF-1R enzyme IC50. The procedure: In Vitro CSF-1R Kinase Activity Measured by Time-Resolved Fluorescence Resonance Energy Transfer (trFRET)
CSF-1R, sequence (P07333 538-910): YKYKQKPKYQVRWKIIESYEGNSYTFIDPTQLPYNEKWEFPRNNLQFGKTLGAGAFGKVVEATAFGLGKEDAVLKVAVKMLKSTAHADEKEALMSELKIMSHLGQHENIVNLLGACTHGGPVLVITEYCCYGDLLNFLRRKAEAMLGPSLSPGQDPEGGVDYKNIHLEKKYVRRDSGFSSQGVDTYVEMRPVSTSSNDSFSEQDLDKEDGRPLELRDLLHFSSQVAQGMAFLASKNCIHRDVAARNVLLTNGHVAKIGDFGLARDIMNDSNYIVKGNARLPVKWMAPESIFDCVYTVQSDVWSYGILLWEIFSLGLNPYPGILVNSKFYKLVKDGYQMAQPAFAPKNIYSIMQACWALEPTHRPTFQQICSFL
The CSF-1R construct corresponds to recombinant human catalytic domain (aa 538-910), which was purchased from Invitrogen (cat #PV4092). CSF-1R was mixed with peptide substrate (biotin-TYR1, Sequence: Biotin-(Ahx)-GAEEEIYAAFFA-COOH, 4 μM final) at varying inhibitor concentrations in reaction buffer: 50 mM MOPSO pH 6.5, 10 mM MgCl2, 2 mM MnCl2, 2.5 mM DTI, 0.01% BSA, 0.1 mM Na3VO4 and 0.1 mM ATP. After about 60 min incubation at rt, the reaction was quenched by addition of EDTA (final concentration: 100 mM) and developed by addition of detection reagents (final approximate concentrations: 30 mM HEPES pH 7.0, 0.06% BSA, 0.006% Tween-20, 0.24 M KF, 80 ng/mL PT66K (europium labeled anti-phosphotyrosine antibody cat #61T66KLB Cisbio, Bedford, Mass.) and 0.6 μg/mL SAXL (Phycolink streptavidin-allophycocyanin acceptor, cat #PJ25S, Prozyme, San Leandro, Calif.). The developed reaction was incubated in the dark for about 60 min at rt, then read via a time-resolved fluorescence detector (Rubystar, BMG) using a 337 nm laser for excitation and monitoring emission wavelength at 665 nm. Within the linear range of the assay, the observed signal at 665 nm was directly related to phosphorylated product and can be used to calculate the IC50 values.
Consider `CN1CCn2nc(Nc3cc(C4CCCC4)cn4ncnc34)cc2C1` [E.1.9, 6-cyclopentyl-N-(5-methyl-4,5,6,7-tetrahydropyrazolo[1,5-a]pyrazin-2-yl)-[1,2,4]triazolo[1,5-a]pyridin-8-amine], for which the IC50 (in general, the concentration needed to halve the response being measured) was less than 0.1 µM. Turning to `Cn1cc(Nc2nc(C3CCCCC3)cn3ncnc23)cn1` [E.1.10, 6-cyclohexyl-N-(1-methyl-1H-pyrazol-4-yl)-[1,2,4]triazolo[1,5-a]pyrazin-8-amine], the IC50 is less than 0.1 µM. As to `CC(C)(O)Cn1cc(Nc2nc(C3CCCCC3)cn3ncnc23)cn1` [Example 11, 1-(4-((6-cyclohexyl-[1,2,4]triazolo[1,5-a]pyrazin-8-yl)amino)-1H-pyrazol-1-yl)-2-methylpropan-2-ol], the IC50 was less than 0.1 µM.

Consider `c1nc2c(Nc3cc4n(n3)CCOC4)cc(C3CCCC3)cn2n1` [Example 12, N-(6-cyclopentyl-[1,2,4]triazolo[1,5-a]pyridin-8-yl)-6,7-dihydro-4H-pyrazolo[5,1-c][1,4]oxazin-2-amine], for which the IC50 was less than 0.1 µM. Take `OC1CCN(c2ccc(Nc3cc(C4CCCCC4)cn4ncnc34)nc2)CC1` [Example 13, 1-(6-((6-cyclohexyl-[1,2,4]triazolo[1,5-a]pyridin-8-yl)amino)pyridin-3-yl)piperidin-4-ol]: the IC50 is less than 0.1 µM. The figure for `CN1CCC(n2cc(Nc3nc(C4CCCCC4)cn4ncnc34)cn2)CC1` [Example 14, 6-cyclohexyl-N-(1-(1-methylpiperidin-4-yl)-1H-pyrazol-4-yl)-[1,2,4]triazolo[1,5-a]pyrazin-8-amine] is less than 0.1 µM.

`OCCCn1cc(Nc2nc(C3CCCCC3)cn3ncnc23)cn1` [Example 15, 3-(4-((6-cyclohexyl-[1,2,4]triazolo[1,5-a]pyrazin-8-yl)amino)-1H-pyrazol-1-yl)propan-1-ol]: the IC50 was less than 0.1 µM.

In the case of `O=C(O)[C@H]1CC[C@@H](n2cc(Nc3nc(C4CCCCC4)cn4ncnc34)cn2)CC1` [Example 16, cis-4-(4-((6-cyclohexyl-[1,2,4]triazolo[1,5-a]pyrazin-8-yl)amino)-1H-pyrazol-1-yl)cyclohexanecarboxylic acid], the IC50 is less than 0.1 µM. Consider `C[C@@H]1C[C@@H](n2cc(Nc3nc(C4CCCCC4)cn4ncnc34)cn2)C[C@H](C)N1` [Example 17, 6-cyclohexyl-N-(1-((2R,4S,6S)-2,6-dimethylpiperidin-4-yl)-1H-pyrazol-4-yl)-[1,2,4]triazolo[1,5-a]pyrazin-8-amine], for which the IC50 is less than 0.1 µM.

On to `CC(=O)N1CCC(n2cc(Nc3nc(C4CCCCC4)cn4ncnc34)cn2)CC1` [F.1.43, 1-(4-(4-((6-cyclohexyl-[1,2,4]triazolo[1,5-a]pyrazin-8-yl)amino)-1H-pyrazol-1-yl)piperidin-1-yl)ethanone], for which the IC50 was less than 0.1 µM. For `CNC(=O)N1CCC(n2cc(Nc3nc(C4CCCCC4)cn4ncnc34)cn2)CC1` [F.1.44, 4-(4-((6-cyclohexyl-[1,2,4]triazolo[1,5-a]pyrazin-8-yl)amino)-1H-pyrazol-1-yl)-N-methylpiperidine-1-carboxamide], the 50% inhibitory concentration (IC50) is less than 0.1 µM.

For the compound `O[C@H]1CCC[C@H](n2cc(Nc3nc(C4CCCCC4)cn4ncnc34)cn2)C1` [G.1.1], the half-inhibitory concentration (IC50) is less than 0.1 µM.

For `O[C@@H]1CCC[C@@H](n2cc(Nc3nc(C4CCCCC4)cn4ncnc34)cn2)C1` [G.1.2], the IC50 is less than 0.1 µM. As for `O[C@@H]1CCC[C@H](n2cc(Nc3nc(C4CCCCC4)cn4ncnc34)cn2)C1` [G.1.3], the IC50 was less than 0.1 µM.
